Assays:
Assay type in all cases: cell-based, Pseudomonas aeruginosa
[1] = test system: P. aeruginosa strain PAR 20; experiment: Antibiotic susceptibility test, disk diffusion (EUCAST); parameters: key: R means resistant to the antibiotic; S means sensitive to the antibiotic; conditions: disk load given per antibiotic
Description: (§1) All tests were performed on Pseudomonas aeruginosa strains coded: PAR 5, PAR 20, PAR 50, isolated from suppurated wounds of three male patients with chronic diabetic foot infections.
(§2) Drug resistance of the P. aeruginosa strains were tested using the disk diffusion method. Interpretation of the drug resistance of the Pseudomonas aeruginosa strains was done in accordance with the EUCAST standards (see the reference below for more information): http://www.eucast.org/fileadmin/src/media/PDFs/EUCAST_files/Breakpoint tables/Breakpoint_table_v_3.1.pdf.
(§3) To determine the drug resistance of the strains, the following antibiotics were used: amikacin, ciprofloxacin, gentamicin, piperacillin, tobramycin, ceftazidime (Oxoid, Basingstoke, UK). R means resistant to the antibiotic and S means sensitive to the antibiotic.

[2] = test system: P. aeruginosa strain PAR 5; experiment: as above; parameters: key: R means resistant to the antibiotic; S means sensitive to the antibiotic; conditions: disk load given per antibiotic
Description: as §1, §2, §3

[3] = test system: P. aeruginosa strain PAR 50; experiment: as above; parameters: key: R means resistant to the antibiotic; S means sensitive to the antibiotic; conditions: disk load given per antibiotic
Description: as §1, §2, §3

[4] = test system: P. aeruginosa strain PAR 5 biofilm; experiment: Reduction of biofilm growth (percent vs culture control)
How it was run: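 Iminosugars at 0.9 mM final were added to P. aeruginosa in TSB either at seeding (early biofilm, 48 h at 37° C) or 48 h after bacterial adherence (mature biofilm). Biofilm stained with Congo Red and read spectrophotometrically; percent decrease in thickness is the mean of 3 measurements relative to untreated control (100%).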

[5] = test system: P. aeruginosa strain PAR 5 biofilm; experiment: Mature biofilm model, Congo red staining; conditions: for absorbance (Congo red, biofilm development): mature biofilm, compound added 48 h after induction of biofilm
How it was run: (§4)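 Compounds added 48 h after bacterial adherence in 96-well plates; biofilm checked at 48, 48.5, 56, 72 and 96 h. Biomass stained with 0.1% Congo red for 30 min at room temperature, washed, absorbance read at 492 nm. Triplicate means ±SD.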

[6] = test system: P. aeruginosa strain PAR 20 biofilm; experiment: Mature biofilm model, Congo red staining; conditions: for absorbance (Congo red, biofilm development): mature biofilm, compound added 48 h after induction of biofilm
How it was run: as §4

[7] = test system: P. aeruginosa strain PAR 50 biofilm; experiment: Mature biofilm model, Congo red staining; conditions: for absorbance (Congo red, biofilm development): mature biofilm, compound added 48 h after induction of biofilm
How it was run: as §4

[8] = test system: P. aeruginosa strain PAR 5 biofilm; experiment: Early biofilm model, Congo red staining; conditions: for absorbance (Congo red, biofilm formation): 0.9 mM, 492 nm
How it was run: (§5)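 Biofilm set up from 1×10^8 CFU/ml P. aeruginosa in TSB, centrifuged 10 min at 2000 rpm; iminosugars at 0.9 mM added at seeding, incubated up to 48 h at 37° C. Biofilm stained with 0.1% Congo red for 30 min and read at 492 nm at 0, 0.5, 8, 24 and 48 h, with viable counts in parallel; TSB-only cultures served as control.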

[9] = test system: P. aeruginosa strain PAR 20 biofilm; experiment: Early biofilm model, Congo red staining; conditions: for absorbance (Congo red, biofilm formation): early biofilm, 0.9 mM, 492 nm
How it was run: as §5

[10] = test system: P. aeruginosa strain PAR 50 biofilm; experiment: Early biofilm model, Congo red staining; conditions: for absorbance (Congo red, biofilm formation): early biofilm, 0.9 mM, 492 nm
How it was run: as §5

[11] = test system: P. aeruginosa strain PAR 20; experiment: Number of viable bacteria in early and mature biofilm (viable count)
How it was run: (§6)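 Biofilm contents of P. aeruginosa PAR 5, PAR 20 or PAR 50 wells sampled at 0-96 h, iminosugars added at 48 h. Decimal dilutions in TSB were plated on McConkey agar, incubated 24 h at 37° C., and colonies counted as log CFU/ml; detection limit 100 CFU/ml.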

[12] = test system: P. aeruginosa strain PAR 5; experiment: as above
How it was run: as §6

[13] = test system: P. aeruginosa strain PAR 50; experiment: as above
How it was run: as §6

[14] = test system: P. aeruginosa strain PAR 50 biofilm; experiment: Reduction of biofilm growth (percent vs culture control)
How it was run: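 Biofilms grown in TSB at 37 °C; compounds at 0.9 mM final added at inoculation (early biofilm, 48 h) or 48 h after bacterial adherence (mature biofilm). Congo Red-stained biofilm read by spectrophotometry, mean of 3 measurements; reduction expressed as percent versus untreated control set to 100%.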

[15] = test system: P. aeruginosa strain PAR 20 biofilm; experiment: as above
[16] = in comparison with culture control

With Gentamicin the “Antibiotic susceptibility (according to EUCAST)” value (from here on “Antibiotic susceptibility”) [1] was “S”, the “Antibiotic susceptibility” value [2] was “S” and the “Antibiotic susceptibility” value [3] was “R”.

In the case of CC(C)(O/N=C(\C(=O)N[C@@H]1C(=O)N2C(C(=O)[O-])=C(C[n+]3ccccc3)CS[C@H]12)c1csc(N)n1)C(=O)O [Ceftazidime], the “Antibiotic susceptibility” value [1] is reported as “S”, the “Antibiotic susceptibility” value [2] is reported as “R” and the “Antibiotic susceptibility” value [3] is reported as “S”.

For CCN1CCN(C(=O)N[C@@H](C(=O)N[C@@H]2C(=O)N3[C@@H]2SC(C)(C)[C@@H]3C(=O)O)c2ccccc2)C(=O)C1=O [Piperacillin], the “Antibiotic susceptibility” value [1] was “S”, the “Antibiotic susceptibility” value [2] was “S” and the “Antibiotic susceptibility” value [3] was “R”.

In the case of NCC[C@H](O)C(=O)N[C@@H]1C[C@H](N)[C@@H](O[C@H]2O[C@H](CN)[C@@H](O)[C@H](O)[C@H]2O)[C@H](O)[C@H]1O[C@H]1O[C@H](CO)[C@@H](O)[C@H](N)[C@H]1O [Amikacin], the “Antibiotic susceptibility” value [1] is reported as “S”, the “Antibiotic susceptibility” value [2] is reported as “S” and the “Antibiotic susceptibility” value [3] is reported as “R”.

In the case of O=C(O)c1cn(C2CC2)c2cc(N3CCNCC3)c(F)cc2c1=O [Ciprofloxacin], the “Antibiotic susceptibility” value [1] is reported as “S”, the “Antibiotic susceptibility” value [2] is reported as “S” and the “Antibiotic susceptibility” value [3] is reported as “S”.

With NC[C@H]1O[C@H](O[C@H]2[C@H](O)[C@@H](O[C@H]3O[C@H](CO)[C@@H](O)[C@H](N)[C@H]3O)[C@H](N)C[C@@H]2N)[C@H](N)C[C@@H]1O [Tobramycin] the “Antibiotic susceptibility” value [1] was “S”, the “Antibiotic susceptibility” value [2] was “S” and the “Antibiotic susceptibility” value [3] was “R”.

For CCCCCC[C@H]1NC[C@@H](O)[C@H](O)[C@H]1O [Compound 1, α-1-C-hexyl-1,5-dideoxy-1,5-imino-D-xylitol], the “reduction of biofilm growth” value ([4]; 8 hours of incubation) was “about 90%”, the “reduction of biofilm growth” value ([4]; 24 hours of incubation) was “about 90%” and the “reduction of biofilm growth” value ([4]; 48 hours of incubation) was “about 25%”. For the same compound, the “reduction of biofilm growth” value ([4]; 72 hours of incubation) was “about 10%”, the “effect on biofilm growth” value ([4]; notably an early biofilm) was “can reduce the biofilm growth” and the “influence on mature biofilm formation” value [5] was “weak influence”. For the same compound, the “absorbance (Congo red, biofilm development)” value ([5]; 48 hours) was “about 0.7 a.u”, the “absorbance (Congo red, biofilm development)” value ([5]; 56 hours) was “about 1.1 a.u” and the “absorbance (Congo red, biofilm development)” value ([5]; 72 hours) was “about 1.25 a.u”. The “absorbance (Congo red, biofilm development)” value ([5]; 96 hours) was “about 0.5 a.u”, the “influence on mature biofilm formation” value [6] was “weak influence” and the “absorbance (Congo red, biofilm development)” value ([6]; 48 hours) was “about 0.75 a.u”. For the same compound, the “absorbance (Congo red, biofilm development)” value ([6]; 56 hours) was “about 0.6 a.u”, the “absorbance (Congo red, biofilm development)” value ([6]; 72 hours) was “about 1.5 a.u” and the “absorbance (Congo red, biofilm development)” value ([6]; 96 hours) was “about 1.0 a.u”. The “influence on mature biofilm formation” value [7] was “weak influence”, the “absorbance (Congo red, biofilm development)” value ([7]; 48 hours) was “about 1.6 a.u” and the “absorbance (Congo red, biofilm development)” value ([7]; 56 hours) was “about 1.5 a.u”. The “absorbance (Congo red, biofilm development)” value ([7]; 72 hours) was “about 2.4 a.u”, the “absorbance (Congo red, biofilm development)” value ([7]; 96 hours) was “about 1.9 a.u” and the “biofilm formation at 8 hours, 24 hours and 48 hours” value ([8]; early biofilm) was “no biofilm formation”. For the same compound, the “absorbance (Congo red, biofilm formation)” value ([8]; early biofilm, 8 hours) was “about 0.25 a.u”, the “absorbance (Congo red, biofilm formation)” value ([8]; early biofilm, 24 hours) was “about 0.25 a.u” and the “absorbance (Congo red, biofilm formation)” value ([8]; early biofilm, 48 hours) was “about 0.25 a.u”. For the same compound, the “effect on formation of an early biofilm” value [8, 16] was “inhibit the formation of an early biofilm”, the “absorbance (Congo red, biofilm formation)” value ([9]; 8 hours) was “about 1.0 a.u” and the “absorbance (Congo red, biofilm formation)” value ([9]; 24 hours) was “about 1.0 a.u”. The “absorbance (Congo red, biofilm formation)” value ([9]; 48 hours) was “about 0.75 a.u”, the “effect on formation of an early biofilm” value [9, 16] was “inhibit the formation of an early biofilm” and the “absorbance (Congo red, biofilm formation)” value ([10]; 8 hours) was “about 0.5 a.u”. The “absorbance (Congo red, biofilm formation)” value ([10]; 24 hours) was “about 0.8 a.u”, the “absorbance (Congo red, biofilm formation)” value ([10]; 48 hours) was “about 0.9 a.u” and the “effect on formation of an early biofilm” value [10, 16] was “inhibit the formation of an early biofilm”. The “number of viable P. aeruginosa” value ([11]; early biofilm, 0 h) was 4 × 10^6 CFU/ml, the “number of viable P. aeruginosa” value ([11]; early biofilm, 8 h) was 7 × 10^7 CFU/ml and the “number of viable P. aeruginosa” value ([11]; early biofilm, 24 h) was 1 × 10^8 CFU/ml. The “number of viable P. aeruginosa” value ([11]; early biofilm, 48 h) was 4 × 10^8 CFU/ml, the “number of viable P. aeruginosa” value ([11]; mature biofilm, 56 h) was 6 × 10^7 CFU/ml and the “number of viable P. aeruginosa” value ([11]; mature biofilm, 72 h) was 5 × 10^7 CFU/ml. For the same compound, the “number of viable P. aeruginosa” value ([11]; mature biofilm, 96 h) was 1 × 10^8 CFU/ml, the “number of viable P. aeruginosa” value ([12]; early biofilm, 0 h) was 2 × 10^6 CFU/ml and the “number of viable P. aeruginosa” value ([12]; early biofilm, 8 h) was 3 × 10^7 CFU/ml. The “number of viable P. aeruginosa” value ([12]; early biofilm, 24 h) was 9 × 10^7 CFU/ml, the “number of viable P. aeruginosa” value ([12]; early biofilm, 48 h) was 1 × 10^8 CFU/ml and the “number of viable P. aeruginosa” value ([12]; mature biofilm, 56 h) was 3 × 10^8 CFU/ml. For the same compound, the “number of viable P. aeruginosa” value ([12]; mature biofilm, 72 h) was 2 × 10^8 CFU/ml, the “number of viable P. aeruginosa” value ([12]; mature biofilm, 96 h) was 3 × 10^8 CFU/ml and the “number of viable P. aeruginosa” value ([13]; early biofilm, 0 h) was 8 × 10^7 CFU/ml. For the same compound, the “number of viable P. aeruginosa” value ([13]; early biofilm, 8 h) was 2 × 10^8 CFU/ml, the “number of viable P. aeruginosa” value ([13]; early biofilm, 24 h) was 4 × 10^8 CFU/ml and the “number of viable P. aeruginosa” value ([13]; early biofilm, 48 h) was 3 × 10^8 CFU/ml. For the same compound, the “number of viable P. aeruginosa” value ([13]; mature biofilm, 56 h) was 2 × 10^9 CFU/ml, the “number of viable P. aeruginosa” value ([13]; mature biofilm, 72 h) was 1 × 10^9 CFU/ml and the “number of viable P. aeruginosa” value ([13]; mature biofilm, 96 h) was 1 × 10^9 CFU/ml. The “reduction of biofilm growth” value ([14]; 8 hours of incubation) was “about 30%”, the “reduction of biofilm growth” value ([14]; 24 hours of incubation) was “about 30%” and the “reduction of biofilm growth” value ([14]; 48 hours of incubation) was “about 0%”. The “reduction of biofilm growth” value ([14]; 72 hours of incubation) was “about 0%”, the “effect on biofilm growth” value ([14]; notably an early biofilm) was “can reduce the biofilm growth” and the “reduction of biofilm growth” value ([15]; 8 hours of incubation) was “about 30%”. For the same compound, the “reduction of biofilm growth” value ([15]; 24 hours of incubation) was “about 40%”, the “reduction of biofilm growth” value ([15]; 48 hours of incubation) was “about 40%” and the “reduction of biofilm growth” value ([15]; 72 hours of incubation) was “about 0%”. The “effect on biofilm growth” value ([15]; notably an early biofilm) was “can reduce the biofilm growth”.

Source: patent US10745395B2, “Compounds for their use as drugs for the treatment and/or the prevention of infection(s) caused by biofilm-forming bacteria” (CENTRE NATIONAL DE LA RECHERCHE SCIENTIFIQUE, priority 2014, dated 2020)
